Experimental findings from patent US20260241012A1, “1,8-NAPHTHYRIDIN-2-ONE HETEROBIFUNCTIONAL BCL6 DEGRADERS” (Treeline Biosciences, Inc., priority 2022, published 2026) are described below.

The experiment has as its target T1, N-terminal HiBiT tagged BCL6 (Homo sapiens, UniProt P41182).
T1 construct: expressed in transfected cells; host or cells: HT1080 (ATCC CCL-121), stably transduced with lentivirus pLV-UBC-N-HiBiT-BCL6-PGK-puro
Nature of the experiment: HiBiT based degradation assay. It counts as cell-based. Conditions: HT1080 cells expressing N-terminal HiBiT tagged BCL6, 5 hours of incubation; for Ymin (5 hr): BCL6 degradation normalized with DMSO control; for DC50: four-parameter logistic model, read-out: EC50 (5 hr). The procedure, abridged: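 Degradation measured by luminescence from the Nano-Glo HiBiT lytic reagent (15 min, room temperature), normalized to DMSO controls and fitted to a four-parameter curve.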
Background: HiBiT is a short tag that completes a luciferase, so light tracks the accessible tagged protein.

With `CNC(=O)COc1cc2cc(Nc3nc(N4CC5(CC[C@H](Nc6ccc7c(C8CCC(=O)NC8=O)nn(C)c7c6)[C@@H](C)C5)C4)ncc3Cl)cnc2n(C(C)C)c1=O` (relative stereo) [Compound 180c, rel-2-((6-((5-chloro-2-((6S,7S)-7-((3-(2,6-dioxopiperidin-3-yl)-1-methyl-1H-indazol-6-yl)amino)-6-methyl-2-azaspiro[3.5]nonan-2-yl)pyrimidin-4-yl)amino)-1-isopropyl-2-oxo-1,2-dihydro-1,8-naphthyridin-3-yl)oxy)-N-methylacetamide], the “Ymin (5 hr)” value is given as “++++ (Ymin < 30%)” and the DC50 is less than 10 nM.

For the molecule `CNC(=O)COc1cc2cc(Nc3nc(N4CCC([C@@](C)(O)C5CCN(c6ccc7c(C8CCC(=O)NC8=O)nn(C)c7c6)CC5)CC4)ncc3Cl)cnc2n(C(C)C)c1=O` (single isomer, unassigned) [Compound 201a], the “Ymin (5 hr)” value is on record as “++ (50% ≤ Ymin < 70%)” and the DC50 was less than 10 nM.

Turning to `CNC(=O)COc1cc2cc(Nc3nc(N4CCC(C(=O)N5CCN(c6ccc7c(C8CCC(=O)NC8=O)nn(C)c7c6)CC5)CC4)ncc3Cl)cnc2n(C(C)C)c1=O` (stereo not drawn) [Compound 211, 2-[[6-[[5-chloro-2-[4-[4-[3-(2,6-dioxo-3-piperidyl)-1-methyl-indazol-6-yl]piperazine-1-carbonyl]-1-piperidyl]pyrimidin-4-yl]amino]-1-isopropyl-2-oxo-1,8-naphthyridin-3-yl]oxy]-N-methyl-acetamide], the “Ymin (5 hr)” value is reported as “+++ (30% ≤ Ymin < 50%)” and the DC50 is less than 10 nM.

Turning to `CNC(=O)COc1cc2cc(Nc3nc(N4CC5(CCC(Nc6ccc7c(C8CCC(=O)NC8=O)nn(C)c7c6)CC5)C4)ncc3Cl)cnc2n(C)c1=O` (stereo not drawn) [Compound 138, 2-((6-((5-chloro-2-(7-((3-(2,6-dioxopiperidin-3-yl)-1-methyl-1H-indazol-6-yl)amino)-2-azaspiro[3.5]nonan-2-yl)pyrimidin-4-yl)amino)-1-methyl-2-oxo-1,2-dihydro-1,8-naphthyridin-3-yl)oxy)-N-methylacetamide], the “Ymin (5 hr)” value is listed as “++++ (Ymin < 30%)” and the DC50 was less than 10 nM.

Take `CNC(=O)COc1cc2cc(Nc3nc(N4CC5(CCC(Oc6ccc7c(C8CCC(=O)NC8=O)nn(C)c7c6)CC5)C4)ncc3Cl)cnc2n(C(C)C)c1=O` (stereo not drawn) [Compound 183, 2-[[6-[[5-chloro-2-[7-[3-(2,6-dioxo-3-piperidyl)-1-methyl-indazol-6-yl]oxy-2-azaspiro[3.5]nonan-2-yl]pyrimidin-4-yl]amino]-1-isopropyl-2-oxo-1,8-naphthyridin-3-yl]oxy]-N-methyl-acetamide]: the “Ymin (5 hr)” value is “++++ (Ymin < 30%)” and the DC50 is less than 10 nM.

With `CNC(=O)COc1cc2cc(Nc3nc(N4CCN(C(=O)N5CCC(c6cccc7c(C8CCC(=O)NC8=O)nn(C)c67)CC5)CC4)ncc3Cl)cnc2n(C(C)C)c1=O` (stereo not drawn) [Compound 224, 2-[[6-[[5-chloro-2-[4-[4-[3-(2,6-dioxo-3-piperidyl)-1-methyl-indazol-7-yl]piperidine-1-carbonyl]piperazin-1-yl]pyrimidin-4-yl]amino]-1-isopropyl-2-oxo-1,8-naphthyridin-3-yl]oxy]-N-methyl-acetamide], the “Ymin (5 hr)” value is listed as “+++ (30% ≤ Ymin < 50%)” and the DC50 was less than 10 nM.

For the molecule `CNC(=O)COc1cc2cc(Nc3nc(N4CC[C@@H](CN5CCN(c6cccc7c(C8CCC(=O)NC8=O)nn(C)c67)CC5)[C@H](C)C4)ncc3Cl)cnc2n(C(C)C)c1=O` (stereo partly drawn) [Compound 177c, 2-[[6-[[5-chloro-2-[(3S,4R)-4-[[4-[3-(2,6-dioxo-3-piperidyl)-1-methyl-indazol-7-yl]piperazin-1-yl]methyl]-3-methyl-1-piperidyl]pyrimidin-4-yl]amino]-1-isopropyl-2-oxo-1,8-naphthyridin-3-yl]oxy]-N-methyl-acetamide], the “Ymin (5 hr)” value is recorded as “+++ (30% ≤ Ymin < 50%)” and the DC50 lay in the range of 100 to 1000 nM.

On to `CNC(=O)COc1cc2cc(Nc3nc(N4CC5(CC(Oc6ccc7c(C8CCC(=O)NC8=O)nn(C)c7c6)C5)C4)ncc3Cl)cnc2n(C(C)C)c1=O` (stereo not drawn) [Compound 213, 2-[[6-[[5-chloro-2-[6-[3-(2,6-dioxo-3-piperidyl)-1-methyl-indazol-6-yl]oxy-2-azaspiro[3.3]heptan-2-yl]pyrimidin-4-yl]amino]-1-isopropyl-2-oxo-1,8-naphthyridin-3-yl]oxy]-N-methyl-acetamide], for which the “Ymin (5 hr)” value is “++++ (Ymin < 30%)” and the DC50 was less than 10 nM.

For `CNC(=O)COc1cc2cc(Nc3nc(N4CCN(CC5CCN(c6cccc7c(C8CCC(=O)NC8=O)nn(C)c67)CC5)CC4)ncc3Cl)cnc2n(C)c1=O` (stereo not drawn) [Compound 101, 2-((6-((5-chloro-2-(4-((1-(3-(2,6-dioxopiperidin-3-yl)-1-methyl-1H-indazol-7-yl)piperidin-4-yl)methyl)piperazin-1-yl)pyrimidin-4-yl)amino)-1-methyl-2-oxo-1,2-dihydro-1,8-naphthyridin-3-yl)oxy)-N-methylacetamide], the “Ymin (5 hr)” value is “++++ (Ymin < 30%)” and the DC50 is less than 10 nM.

Take `CNC(=O)COc1cc2cc(Nc3nc(N4CCC([C@](C)(O)C5CCN(c6ccc7c(C8CCC(=O)NC8=O)nn(C)c7c6)CC5)CC4)ncc3Cl)cnc2n(C(C)C)c1=O` (single isomer, unassigned) [Compound 201b]: the “Ymin (5 hr)” value was “+++ (30% ≤ Ymin < 50%)” and the DC50 is less than 10 nM.

As to `CNC(=O)COc1cc2cc(Nc3nc(N4CCC(CN5CCN(c6cccc7c(C8CCC(=O)NC8=O)nn(C)c67)[C@@H](C)C5)CC4)ncc3F)cnc2n(C(C)C)c1=O` (stereo partly drawn) [Compound 210a, 2-[[6-[[2-[4-[[(3S)-4-[3-(2,6-dioxo-3-piperidyl)-1-methyl-indazol-7-yl]-3-methyl-piperazin-1-yl]methyl]-1-piperidyl]-5-fluoro-pyrimidin-4-yl]amino]-1-isopropyl-2-oxo-1,8-naphthyridin-3-yl]oxy]-N-methyl-acetamide], the “Ymin (5 hr)” value is recorded as “++++ (Ymin < 30%)” and the DC50 fell in the range of 10 to 100 nM.

For the molecule `CNC(=O)COc1cc2cc(Nc3nc(N4CCC(CN5C6CCC5CC(c5cccc7c(C8CCC(=O)NC8=O)nn(C)c57)C6)CC4)ncc3Cl)cnc2n(C)c1=O` [Compound 143, 2-((6-((5-chloro-2-(4-(((1R,3s,5S)-3-(3-(2,6-dioxopiperidin-3-yl)-1-methyl-1H-indazol-7-yl)-8-azabicyclo[3.2.1]octan-8-yl)methyl)piperidin-1-yl)pyrimidin-4-yl)amino)-1-methyl-2-oxo-1,2-dihydro-1,8-naphthyridin-3-yl)oxy)-N-methylacetamide], the “Ymin (5 hr)” value is on record as “++++ (Ymin < 30%)” and the DC50 is less than 10 nM.

Consider `CNC(=O)COc1cc2cc(Nc3nc(N4CCN(CC5CCN(c6cccc7c(C8CCC(=O)NC8=O)nn(C)c67)CC5)CC4)ncc3Cl)cnc2n(CC(F)(F)F)c1=O` (stereo not drawn) [Compound 170, 2-[[6-[[5-chloro-2-[4-[[1-[3-(2,6-dioxo-3-piperidyl)-1-methyl-indazol-7-yl]-4-piperidyl]methyl]piperazin-1-yl]pyrimidin-4-yl]amino]-2-oxo-1-(2,2,2-trifluoroethyl)-1,8-naphthyridin-3-yl]oxy]-N-methyl-acetamide], for which the “Ymin (5 hr)” value is listed as “++++ (Ymin < 30%)” and the DC50 lay within 10 to 100 nM.

For the molecule `CNC(=O)COc1cc2cc(Nc3nc(N4CCN(CC5CCN(c6cccc7c(N8CCC(=O)NC8=O)nn(C)c67)CC5)CC4)ncc3Cl)cnc2n(C(C)C)c1=O` [Compound 109, 2-((6-((5-chloro-2-(4-((1-(3-(2,4-dioxotetrahydropyrimidin-1 (2H)-yl)-1-methyl-1H-indazol-7-yl)piperidin-4-yl)methyl)piperazin-1-yl)pyrimidin-4-yl)amino)-1-isopropyl-2-oxo-1,2-dihydro-1,8-naphthyridin-3-yl)oxy)-N-methylacetamide], the “Ymin (5 hr)” value is recorded as “+++ (30% ≤ Ymin < 50%)” and the DC50 lay in the range of 10 to 100 nM.

Consider `CNC(=O)COc1cc2cc(Nc3nc(N4CC5(CC[C@H](Oc6ccc7c(C8CCC(=O)NC8=O)nn(C)c7c6)[C@H](C)C5)C4)ncc3Cl)cnc2n(C(C)C)c1=O` (single isomer, unassigned) [Compound 185a], for which the “Ymin (5 hr)” value is listed as “++++ (Ymin < 30%)” and the DC50 is less than 10 nM.

`CNC(=O)COc1cc2cc(Nc3nc(N4CCC(CN5CCN(c6cccc7c(C8CCC(=O)NC8=O)nn(C)c67)CC5)CC4)ncc3Cl)cnc2n(C)c1=O` (stereo not drawn) [Compound 132, 2-((6-((5-chloro-2-(4-((4-(3-(2,6-dioxopiperidin-3-yl)-1-methyl-1H-indazol-7-yl)piperazin-1-yl)methyl)piperidin-1-yl)pyrimidin-4-yl)amino)-1-methyl-2-oxo-1,2-dihydro-1,8-naphthyridin-3-yl)oxy)-N-methylacetamide]: the “Ymin (5 hr)” value was “++++ (Ymin < 30%)” and the DC50 was less than 10 nM.

For the molecule `CNC(=O)COc1cc2cc(Nc3nc(N4CCC(C(C)(C)N5CCN(c6ccc7c(C8CCC(=O)NC8=O)nn(C)c7c6)CC5)CC4)ncc3Cl)cnc2n(C(C)C)c1=O` (stereo not drawn) [Compound 171, 2-[[6-[[5-chloro-2-[4-[1-[4-[3-(2,6-dioxo-3-piperidyl)-1-methyl-indazol-6-yl]piperazin-1-yl]-1-methyl-ethyl]-1-piperidyl]pyrimidin-4-yl]amino]-1-isopropyl-2-oxo-1,8-naphthyridin-3-yl]oxy]-N-methyl-acetamide], the “Ymin (5 hr)” value is “++ (50% ≤ Ymin < 70%)” and the DC50 was less than 10 nM.

On to `CNC(=O)COc1cc2cc(Nc3nc(N4CCC(CN5CCN(c6cccc7c(C8CCC(=O)NC8=O)nn(C)c67)[C@H](C)C5)CC4)ncc3Cl)cnc2n(C(C)C)c1=O` (stereo partly drawn) [Compound 169b, 2-((6-((5-chloro-2-(4-(((3R)-4-(3-(2,6-dioxopiperidin-3-yl)-1-methyl-1H-indazol-7-yl)-3-methylpiperazin-1-yl)methyl)piperidin-1-yl)pyrimidin-4-yl)amino)-1-isopropyl-2-oxo-1,2-dihydro-1,8-naphthyridin-3-yl)oxy)-N-methylacetamide], for which the “Ymin (5 hr)” value is recorded as “++++ (Ymin < 30%)” and the DC50 is less than 10 nM.
